Source: patent US20180099931A1 (AbbVie S.à.r.l., priority 2016, published 2018)
Like-named read-outs stand apart in the source and are kept apart here.

Target: T1, F508delCFTR (Homo sapiens, UniProt P13569, DEL508-508)
T1 construct: expressed in transfected cells; host or cells: CFBE41o- human lung-derived epithelial cells (CFBE4lo-F508delCFTR-HRP), doxycycline-inducible
Assay: Cell Surface Expression-Horse Radish Peroxidase (CSE-HRP) Assay;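 for Maximum % activity (with co-corrector): co-corrector and positive control are both the same reference corrector at 2 µM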;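 for Maximum % activity (without co-corrector): percent of the 2 µM on-plate positive control corrector response above DMSO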
Assay type: cell-based
Details: CSE-HRP; for Maximum % activity (with co-corrector): with co-corrector (2 μM); for Maximum % activity (with co-corrector) / Emax: maximum at any tested concentration, normalized to on-plate positive control; for Emax: without co-corrector, read-out: Maximum % activity (without co-corrector)

[1] = test compound without co-corrector, read-out: EC50 (without co-corrector)
[2] = with co-corrector (2 μM of 3-[(2R,4R)-4-({[1-(2,2-difluoro-1,3-benzodioxol-5-yl)cyclopropyl]carbonyl}amino)-7-methoxy-3,4-dihydro-2H-chromen-2-yl]benzoic acid), read-out: EC50 (with co-corrector)

T1 sequence (P13569 with tags, fused parts or gaps DEL508-508): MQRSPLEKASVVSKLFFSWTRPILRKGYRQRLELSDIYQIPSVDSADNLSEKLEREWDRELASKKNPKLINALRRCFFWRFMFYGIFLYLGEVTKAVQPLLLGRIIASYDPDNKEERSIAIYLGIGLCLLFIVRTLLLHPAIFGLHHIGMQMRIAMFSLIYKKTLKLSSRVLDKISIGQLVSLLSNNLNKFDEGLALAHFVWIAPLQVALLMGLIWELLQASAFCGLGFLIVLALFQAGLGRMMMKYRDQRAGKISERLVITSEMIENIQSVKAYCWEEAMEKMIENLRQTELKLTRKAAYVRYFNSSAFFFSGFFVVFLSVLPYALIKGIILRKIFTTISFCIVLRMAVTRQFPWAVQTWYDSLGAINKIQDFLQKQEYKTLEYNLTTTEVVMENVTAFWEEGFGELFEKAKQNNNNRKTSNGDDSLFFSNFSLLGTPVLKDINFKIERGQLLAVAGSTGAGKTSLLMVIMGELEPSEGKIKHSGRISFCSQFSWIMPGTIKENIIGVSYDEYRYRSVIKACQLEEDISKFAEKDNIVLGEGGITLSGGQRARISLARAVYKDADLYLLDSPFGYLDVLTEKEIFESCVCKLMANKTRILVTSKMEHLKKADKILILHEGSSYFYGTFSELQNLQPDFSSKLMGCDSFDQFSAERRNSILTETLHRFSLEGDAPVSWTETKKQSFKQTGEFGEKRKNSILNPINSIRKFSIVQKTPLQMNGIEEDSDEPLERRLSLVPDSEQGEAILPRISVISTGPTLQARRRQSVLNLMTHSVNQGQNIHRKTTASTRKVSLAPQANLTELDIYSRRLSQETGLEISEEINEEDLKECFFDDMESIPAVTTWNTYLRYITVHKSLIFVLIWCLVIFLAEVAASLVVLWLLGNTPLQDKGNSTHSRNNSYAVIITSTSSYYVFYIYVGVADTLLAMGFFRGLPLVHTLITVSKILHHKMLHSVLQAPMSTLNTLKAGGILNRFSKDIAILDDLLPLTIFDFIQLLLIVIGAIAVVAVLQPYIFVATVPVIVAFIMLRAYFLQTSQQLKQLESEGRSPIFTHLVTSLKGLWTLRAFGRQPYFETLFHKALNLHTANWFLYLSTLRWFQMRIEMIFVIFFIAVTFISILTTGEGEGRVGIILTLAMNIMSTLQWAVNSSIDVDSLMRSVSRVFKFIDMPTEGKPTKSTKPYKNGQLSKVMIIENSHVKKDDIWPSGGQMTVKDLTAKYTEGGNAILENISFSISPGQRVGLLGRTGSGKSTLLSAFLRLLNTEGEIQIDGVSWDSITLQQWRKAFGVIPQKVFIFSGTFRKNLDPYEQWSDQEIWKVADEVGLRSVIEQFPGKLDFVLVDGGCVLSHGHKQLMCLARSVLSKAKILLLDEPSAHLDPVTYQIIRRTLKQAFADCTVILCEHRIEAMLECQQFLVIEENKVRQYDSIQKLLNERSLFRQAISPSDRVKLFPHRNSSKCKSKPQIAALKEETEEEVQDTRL

| SMILES | EC50 [1] [µM] | EC50 [2] [µM] | Maximum % activity (with co-corrector) | Emax [%] |
| --- | --- | --- | --- | --- |
| COc1ccc(C(C)(C)C)cc1CN[C@H]1[C@H](C(C)(C)C)[C@@H](C(=O)O)N(C(=O)Cc2ccccc2)[C@H]1c1ccccc1 [II-180] | 1 to 10 | < 1 | +++ (≥350) | > 200 |
| COc1ccc(C(C)(C)C)cc1CN[C@H]1[C@H](C(C)(C)C)[C@@H](C(=O)O)N(C(=O)Cc2ccc(F)cc2)[C@H]1c1ccccc1 [II-181] | 1 to 10 | 1 to 10 | +++ (≥350) | 100 to 200 |
| COc1ccc(C(C)(C)C)cc1CN[C@H]1[C@H](C(C)(C)C)[C@@H](C(=O)O)N(C(=O)Cc2cccs2)[C@H]1c1ccccc1 [II-182] | 1 to 10 | < 1 | +++ (≥350) | > 200 |
| COc1ccc(C(C)(C)C)cc1CN[C@H]1[C@H](C(C)(C)C)[C@@H](C(=O)O)N(C(=O)Cc2ccccc2Cl)[C@H]1c1ccccc1 [II-183] | < 1 | < 1 | +++ (≥350) | > 200 |
| COc1ccc(C(C)(C)C)cc1CN[C@H]1[C@H](C(C)(C)C)[C@@H](C(=O)O)N(C(=O)Cc2cccnc2)[C@H]1c1ccccc1 [II-184] | 1 to 10 | 1 to 10 | +++ (≥350) | 100 to 200 |
| COc1ccc(C(C)(C)C)cc1CN[C@H]1[C@H](C(C)(C)C)[C@@H](C(=O)O)N(C(=O)c2coc3ccccc23)[C@H]1c1ccccc1 [II-185] | < 1 | < 1 | +++ (≥350) | < 100 |
| COc1ccc(C(C)(C)C)cc1CN[C@H]1[C@H](C(C)(C)C)[C@@H](C(=O)O)N(C(=O)C2CCCC(C(F)(F)F)C2)[C@H]1c1ccccc1 (stereo partly drawn) [II-186] | < 1 | < 1 | +++ (≥350) | > 200 |
| COc1ccc(C(C)(C)C)cc1CN[C@H]1[C@H](C(C)(C)C)[C@@H](C(=O)O)N(C(=O)CN2CCCC2)[C@H]1c1ccccc1 [II-187] | 1 to 10 | 1 to 10 | ++ (≥150 and <350) | < 100 |
| COc1ccc(C(C)(C)C)cc1CN[C@H]1[C@H](C(C)(C)C)[C@@H](C(=O)O)N(C(=O)CC2CCC(F)(F)CC2)[C@H]1c1ccccc1 [II-188] | 1 to 10 | 1 to 10 | +++ (≥350) | > 200 |
| COc1ccc(C(C)(C)C)cc1CN[C@H]1[C@H](C(C)(C)C)[C@@H](C(=O)O)N(C(=O)C2(c3ccccn3)CC2)[C@H]1c1ccccc1 [II-189] | 1 to 10 | 1 to 10 | +++ (≥350) | > 200 |
| COc1ccc(OC(F)(F)F)cc1CN[C@H]1[C@H](C(C)(C)C)[C@@H](C(=O)O)N(C(=O)C2CCCCC2)[C@H]1c1ccccc1 [II-190] | 1 to 10 | < 1 | +++ (≥350) | > 200 |
| COc1ccc(Cc2ccccc2)cc1CN[C@H]1[C@H](C(C)(C)C)[C@@H](C(=O)O)N(C(=O)C2CCCCC2)[C@H]1c1ccccc1 [II-191] | 1 to 10 | < 1 | +++ (≥350) | > 200 |
| COc1ccc(C2CCCCC2)cc1CN[C@H]1[C@H](C(C)(C)C)[C@@H](C(=O)O)N(C(=O)C2CCCCC2)[C@H]1c1ccccc1 [II-192] | < 1 | < 1 | +++ (≥350) | > 200 |
| COc1ccc(C2CCCC2)cc1CN[C@H]1[C@H](C(C)(C)C)[C@@H](C(=O)O)N(C(=O)C2CCCCC2)[C@H]1c1ccccc1 [II-193] | < 1 | < 1 | +++ (≥350) | > 200 |
| COc1ccc(C2CC3CCC2C3)cc1CN[C@H]1[C@H](C(C)(C)C)[C@@H](C(=O)O)N(C(=O)C2CCCCC2)[C@H]1c1ccccc1 (stereo partly drawn) [II-194] | < 1 | < 1 | +++ (≥350) | > 200 |
| COc1ccc(C(C)(C)C)cc1CN[C@H]1[C@H](C(C)(C)C)[C@@H](C(=O)O)N(C(=O)Cc2ccc(O)cc2)[C@H]1c1ccccc1 [II-195] | 1 to 10 | 1 to 10 | +++ (≥350) | > 200 |
| COc1ccc(C(C)(C)C)cc1CN[C@H]1[C@H](C(C)(C)C)[C@@H](C(=O)O)N(C(=O)Cc2cccc(O)c2)[C@H]1c1ccccc1 [II-196] | 1 to 10 | 1 to 10 | +++ (≥350) | > 200 |
| COc1ccc(C(C)(C)C)cc1CN[C@H]1[C@H](C(C)(C)C)[C@@H](C(=O)O)N(C(=O)c2cc(C)nc(C)c2)[C@H]1c1ccccc1 [II-197] | 1 to 10 | 1 to 10 | ++ (≥150 and <350) | < 100 |
| COc1ccc(C(C)(C)C)cc1CN[C@H]1[C@H](C(C)(C)C)[C@@H](C(=O)O)N(C(=O)c2cccnc2C)[C@H]1c1ccccc1 [II-198] | 1 to 10 | 1 to 10 | ++ (≥150 and <350) | < 100 |
| COc1ccc(C(C)(C)C)cc1CN[C@H]1[C@H](C(C)(C)C)[C@@H](C(=O)O)N(C(=O)Cc2cccc(F)c2)[C@H]1c1ccccc1 [II-199] | 1 to 10 | 1 to 10 | +++ (≥350) | > 200 |

More lines, now with the values ahead:

| EC50 [1] [µM] | EC50 [2] [µM] | Maximum % activity (with co-corrector) | Emax [%] | SMILES |
| --- | --- | --- | --- | --- |
| 1 to 10 | < 1 | +++ (≥350) | 100 to 200 | COc1ccc(C(C)(C)C)cc1CN[C@H]1[C@H](C(C)(C)C)[C@@H](C(=O)O)N(C(=O)Cc2cc(F)cc(F)c2)[C@H]1c1ccccc1 [II-200] |
| < 1 | < 1 | +++ (≥350) | > 200 | COc1ccc(C(C)(C)C)cc1CN[C@H]1[C@H](C(C)(C)C)[C@@H](C(=O)O)N(C(=O)Cc2c(F)cccc2F)[C@H]1c1ccccc1 [II-201] |
| < 1 | < 1 | +++ (≥350) | > 200 | COc1ccc(C(C)(C)C)cc1CN[C@H]1[C@H](C(C)(C)C)[C@@H](C(=O)O)N(C(=O)Cc2cc(F)ccc2F)[C@H]1c1ccccc1 [II-202] |
| 1 to 10 | < 1 | +++ (≥350) | 100 to 200 | COc1ccc(C(C)(C)C)cc1CN[C@H]1[C@H](C(C)(C)C)[C@@H](C(=O)O)N(C(=O)Cc2cccc(C)c2)[C@H]1c1ccccc1 [II-203] |
| < 1 | < 1 | +++ (≥350) | 100 to 200 | COc1ccc(C(C)(C)C)cc1CN[C@H]1[C@H](C(C)(C)C)[C@@H](C(=O)O)N(C(=O)Cc2ccc(C)cc2)[C@H]1c1ccccc1 [II-204] |
| < 1 | < 1 | +++ (≥350) | > 200 | COc1ccc(C(C)(C)C)cc1CN[C@H]1[C@H](C(C)(C)C)[C@@H](C(=O)O)N(C(=O)Cc2ccccc2C)[C@H]1c1ccccc1 [II-205] |
| < 1 | < 1 | +++ (≥350) | > 200 | COc1ccc(C(C)(C)C)cc1CN[C@H]1[C@H](C(C)(C)C)[C@@H](C(=O)O)N(C(=O)Cc2ccccc2F)[C@H]1c1ccccc1 [II-206] |
| 1 to 10 | 1 to 10 | +++ (≥350) | 100 to 200 | COc1ccc(C(C)(C)C)cc1CN[C@H]1[C@H](C(C)(C)C)[C@@H](C(=O)O)N(C(=O)c2c(OC)cnn2C)[C@H]1c1ccccc1 [II-207] |
| 1 to 10 | < 1 | +++ (≥350) | > 200 | COc1ccc(C(C)(C)C)cc1CN[C@H]1[C@H](C(C)(C)C)[C@@H](C(=O)O)N(C(=O)Cc2cc(C)sc2C)[C@H]1c1ccccc1 [II-208] |
| 1 to 10 | 1 to 10 | +++ (≥350) | 100 to 200 | COc1ccc(C(C)(C)C)cc1CN[C@H]1[C@H](C(C)(C)C)[C@@H](C(=O)O)N(C(=O)CN2CCOCC2)[C@H]1c1ccccc1 [II-209] |
